Where a name gives a salt, the structure may show the parent alone. Each block holds one compound with its values, some of them ahead of it.
What was measured:
Format in all cases: physicochemical
[1] = Particle morphology (SEM), filterability and powder flowability; details: small plate to rod-shaped particles
Text: Equipment: Jeol JSM-5800 scanning microscope, Sputtered with gold by Edwards S150 sputter coater

[2] = Tapped density measurement; details: 450 mg sample; for tapped density: 10 ml graduated cylinder, tapped 200 times; for volume of sample after tapping: 10 ml measuring flask, tapped 200 times with equal force
Description: Samples were tapped the same number of times (200 times) with equal force. Volume of each sample was recorded: (1.4 ml for Form K; 1.6 ml for H2-1).

[3] = Solubility measurement (time to clear solution in distilled water); details: compared to other solid state forms of Saxagliptin hydrochloride
Description: Equal mass of samples was suspended in equal volume of distilled water. Suspensions were slightly mixed, time was recorded at the moment of clear solution appearance.

SMILES: N#C[C@@H]1C[C@@H]2C[C@@H]2N1C(=O)[C@@H](N)C12CC3CC(CC(O)(C3)C1)C2 [form D, Saxagliptin hydrochloride]
- filterability and powder flowability [1]: good filterability and powder flowability properties

- tapped density ([2]; hydrochloride): about 0.32 g/ml
- volume of sample after tapping ([2]; hydrochloride): 1.4 mL
SMILES: N#C[C@@H]1C[C@@H]2C[C@@H]2N1C(=O)[C@@H](N)C12CC3CC(CC(O)(C3)C1)C2 [form K, Saxagliptin hydrochloride]

- dissolution rate [3]: high dissolution rate
SMILES: N#C[C@@H]1C[C@@H]2C[C@@H]2N1C(=O)[C@@H](N)C12CC3CC(CC(O)(C3)C1)C2 [form Z, Saxagliptin hydrochloride]

- tapped density ([2]; hydrochloride dihydrate): about 0.28 g/ml
- volume of sample after tapping ([2]; hydrochloride dihydrate): 1.6 mL
SMILES: N#C[C@@H]1C[C@@H]2C[C@@H]2N1C(=O)[C@@H](N)C12CC3CC(CC(O)(C3)C1)C2 [form H2-1, Saxagliptin hydrochloride dihydrate, reference compound]
